Source: patent US10646589B2, “Thyroid stimulating hormone receptor peptides and uses thereof” (APITOPE INTERNATIONAL NV, priority 2014, dated 2020)
Structures can show the parent of a compound that is named as a salt.

Assays:
[1] = system: Antigen-specific T cell hybridomas with fixed or not fixed VAVY or BM14 cells (APCs); experiment: Antigen Processing Independent Presentation System (APIPS) assay; type: cell-based; conditions: 25 μg/ml peptide; fixed or fresh VAVY (DR3) or BM14 (DR4) APCs; 48 h; IL-2 ELISA
Procedure: 5×10^4 T cell hybridoma clones specific for RNB-5 (clone 50+35) or RNB-4 (clone 164+455) and TSHR were cultured in presence of TSHR and RNB-5D-K1 or RNB-4K-GKK in combination with 5×10^4 human DR3 expressing antigen presenting B cells (VAVY) (clone 50) or with DR4 expressing antigen presenting B cells (BM14) (Clone 35, 164, 455). Antigen-Presenting Cells (APC) were viable or previously fixed with 0.5% paraformaldehyde prior to addition to the culture wells. After 48 h of co-culture, the supernatants were harvested and analysed by ELISA to assess levels of IL-2 secretion. Results from representative clones are presented.
Antigen-specific T cell hybridomas were tested for their reactivity to the peptides, presented by fixed or not fixed VAVY or BM14 cells (=APCs). 5×10^4 cells from the individual clones were cultured with 25 μg/ml peptide and 5×10^4 fixed or fresh APCs. To fixate APCs, cells were incubated with 0.5% paraformaldehyde (Merck, Darmstadt, Germany) (pH7) for 5 min at room temperature (RT). The fixation reaction was stopped by adding 0.4M glycine (Sigma-Aldrich) and washing the cells in RPMI-10% FCS. Additionally, reactivity towards human TSHR-ECD protein (Chesapeake-PERL, Savage, Md., USA) was measured to identify epitopes. After 48 h, antigen-induced IL-2 production was measured by ELISA.

[2] = system: TSHR-induced T cell proliferation; experiment: Ex vivo tolerization experiment: TSHR-induced proliferation of LN cells and splenocytes after peptide pretreatment; type: in vivo, DR3tg mice; conditions: vs control-treated; s.c. dose escalation schedule; top dose 5D-K1 100 μg, 9B-N 33 μg, ATX-GD-59 15 nmol/peptide; 10 days after parental peptide/CFA immunization
Procedure: DR3tg mice were injected subcutaneously in the flank region with 0.1 μg, 1 μg and 10 μg peptides on days −15, −13 and −11 respectively, followed by 3 injections of 100 μg (top dose/peptide) soluble peptide (5D-K1 or 9B-N) on days −8, −6 and −4 (dose escalation schedule). The ATX-GD-59 is an equimolar mix of the peptides 5D-K1 (SEQ ID NO:1) and 9B-N (SEQ ID NO:2) and the top dose mentioned (nmol) is per peptide in the cocktail. A peptide dose of 100 ug corresponds to ˜45 nmol as both systems been used in different experiments. The peptides were administered subcutaneous in PBS. Alterations in top doses/peptide, and correspondingly in dose escalation doses, are indicated per experiment. On day 0, the mice were immunized subcutaneously in the base of the tail with 50 μg corresponding to the parental peptide (non-modified 5D and/or 9B) emulsified in Complete Freund adjuvants (CFA; 2 mg/ml Mycobacterium tuberculosis H37RA (Difco Laboratories, Michigan, US) in Incomplete Freund adjuvant (Difco)) (50 μg peptide in 100 μL CFA (100 μg H37RA)/injection). Ten days after immunization, draining LN and spleens were harvested. LN cells and splenocytes were isolated and cultured in X-vivo 15 medium supplemented with 2 mM L-glutamine, 50 U/mL penicillin and 50 U/mL streptomycin (all Lonza, Verviers, Belgium) in 96-well flat bottom plates. To investigate antigen-induced cell proliferation, 0.5×10^6 cells/well were cultured (200 μL/well) for 72 hours with TSHR-ECD in a concentration range of 0-25 μg/mL or with 12.5 μg/mL purified protein derivative (PPD; immunisation control; Statens serum institut, Copenhagen, Denmark). After 72 hours in a 37° C. incubator with 5% CO2, 60 μL of cell supernatant was harvested and frozen. 20 μL/well of tritiated thymidine (PerkinElmer, Zaventem, Belgium) were then added to the cells to obtain a final concentration of 1 μCi/well. The cells were incubated at 37° C. and 5% CO2, and after 16 h, plates were frozen. Thawed plates were harvested and read on a β-counter (Wallac 1450 Microbeta Trilux Liquid Scintillation Counter) to assess cell proliferation.
DR3tg or DR4tg mice were injected subcutaneously in the flank region with 0.1 μg, 1 μg and 10 μg of peptide on days −15, −13 and −11 respectively, followed by 3 injections of 33, 75 or 100 μg peptide (depending on top dose, see Figure legends) on days −8, −6 and −4 (dose escalation schedule). Alterations in top doses, and correspondingly in dose escalation doses, are indicated per experiment. On day 0, the mice were immunised subcutaneously in the base of the tail with 50 μg antigen (non-modified parental 15-mer peptide) emulsified in CFA (peptide/CFA). […] Thawed plates were harvested and read with β-counter (Wallac 1450 Microbeta Trilux Liquid Scintillation Counter) to assess the cell proliferation.

[3] = system: anti-TSHR antibodies (IgG class); experiment: Adenoviral animal model for GD: detection of anti-TSHR antibodies by ELISA; type: in vivo, DR3tg mice
Procedure: (§1) DR3tg mice were injected subcutaneously in the flank region with 22.5 pmol, 225 pmol and 2250 pmol ATX-GD-59 or control treatment on days −15, −13 and −11 respectively, followed by 3 injections of 22.5 nmol ATX-GD-59 (top dose/peptide) or control treatment on days −8, −6 and −4 (dose escalation schedule). Alterations in top doses, and correspondingly in dose escalation doses, are indicated per experiment.
Anti-TSHR antibodies (IgG class) against purified recombinant TSHR-ECD (Chesapeake-Perl) were measured using ELISA. […] The signal was developed with tetramethylbenzidine (TMB).
(§2) Alterations in top doses, and correspondingly in dose escalation doses, are indicated per experiment. […] New osmotic pumps were implanted after 4 weeks. […] On day 0, mice were immunized by intramuscular injection with 10^9 or 10^10 Ad-TSHR viral particles and the immunization was repeated three weeks later. […] Mice were euthanized 5 weeks after the first immunization to obtain blood, thyroid and spleen samples. TSHR-induced splenocyte proliferation, cytokine secretion and anti-TSHR antibody levels were assessed as described below.
Anti-TSHR antibodies (IgG class) against purified recombinant TSHR-ECD (Chesapeake-Perl) were measured using ELISA. […] The signal was developed with tetramethylbenzidine.
The signal was developed with tetramethylbenzidine (TMB).
Alterations in top doses, and correspondingly in dose escalation doses, are indicated per experiment. On day 0, mice were immunised by intramuscular injection with 10^9 Ad-TSHR or Ad-LacZ viral particles and the immunisation was repeated three weeks later. Five weeks after the first immunisation, blood and spleens were collected.

Total thyroxine (T4) = experiment: Detection of hyperthyroidism: total thyroxine (T4) in serum by ELISA; type: in vivo, DR3tg mice
Procedure: Total thyroxine (T4) was measured in undiluted mouse serum (10 μl) using the CBI mouse/rat thyroxine ELISA kit (Calbiotech, Spring Valley, Calif., USA) according to the manufacturer's instructions. T4 values were computed from standards in the kit and expressed as μg/dl.
as §2, with “experiment. Starting on the day of the first peptide treatment until termination of the experiment, mice were treated either MMI or propranolol.” for “experiment.”
Total thyroxine (T4) was measured in undiluted mouse serum (10 μl) using the CBI mouse/rat thyroxine ELISA kit (Calbiotech, Spring Valley, Calif., USA) according to the manufacturer's instructions. T4 values were computed from standards in the kit and expressed as μg/dl. In addition to serum T4 determinations, thyroid histology was used as a parameter for hyperthyroidism. Thyroid glands were fixed in 10% neutral buffered formalin (pH 7.5), processed to sections and stained with hematoxylin and eosin.

[4] = system: TSHR-specific splenocyte proliferation; experiment: Adenoviral animal model for GD: TSHR-specific splenocyte proliferation; type: in vivo, DR3tg mice; conditions: 10^9 Ad-TSHR; ATX-GD-459 15 nmol top dose; MMI 500 μg daily s.c. pump; to be interpreted with caution
Procedure: as §1, §2

[5] = Propranolol levels in mouse plasma by LC-MSMS; type: in vivo, DR3tg mice; conditions: 10 mg/kg/day IP; 60-90 minutes post-dose; weeks 0 and 5; FIG. 18
Procedure: Blood samples were collected between 60 and 90 minutes post-dose and individual plasma levels compared between W0 and W5.

[6] = co-medication MMI 500 μg daily + ATX-GD-459 15 nmol

KKKKYVSIDVTLQQLESHKKK (H-KKKKYVSIDVTLQQLESHKKK-NH2) [Peptide 5D-K1, modified TSHR apitope peptide]
apitope status (presentation by fixed APCs, IL-2 secretion) [1]: confirmed to be apitopes | reduction of TSHR-induced T cell proliferation, LN samples [2]: 60% | reduction of TSHR-induced T cell proliferation, spleen samples [2]: 43%

GLKMFPDLTKVYSTD (H-GLKMFPDLTKVYSTD-NH2) [Peptide 9B-N, TSHR peptide]
reduction of TSHR-induced T cell proliferation, LN samples [2]: 33% | reduction of TSHR-induced T cell proliferation, spleen samples [2]: 41%

Cn1cc[nH]c1=S [MMI, methimazole]
effect on anti-TSHR antibody levels, MMI study ([3]; MMI 500 μg daily s.c. osmotic pump, 10^9 Ad-TSHR): had no effect | effect on anti-TSHR IgG isotypes, MMI study ([3]; MMI 500 μg daily, 10^9 Ad-TSHR): had no effect | changes in anti-TSHR IgG levels, model validation ([3]; MMI 50 or 500 μg/mouse/day s.c. pump for 4 weeks, Ad-TSHR week 0 and 3): no changes | effect on antibody reducing capability of ATX-GD-459 (IgG isotypes), MMI study [3, 6]: did not affect | influence on antibody reducing capability of ATX-GD-459 (total IgG), MMI study [3, 6]: did not influence | T4 levels, MMI 50 μg daily, model validation (Total thyroxine (T4); 50 μg dose): only showed a trend towards reduced T4 levels | T4 levels, MMI 500 μg daily, model validation (Total thyroxine (T4); daily dose of 500 μg, both at 2 and 4 weeks after first immunisation): significantly reduced | effect on serum T4 levels, MMI co-medication study (Total thyroxine (T4); week 5, MMI 500 μg daily, ATX-GD-459 15 nmol top dose, 10^9 Ad-TSHR): significantly reduced | effect on TSHR-specific splenocyte proliferation, MMI co-medication study [4]: significant reduction

CC(C)NCC(O)COc1cccc2ccccc12 (centres unmarked) [propranolol, Propranolol hydrochloride]
plasma levels of propranolol [5]: confirms pharmacological dose | Total T4 levels, propranolol co-medication study (Total thyroxine (T4); week 5, propranolol 10 mg/kg/day IP, ATX-GD-459 15 nmol, 10^10 Ad-TSHR): not affected

KKGNLPNISRIYVSIDVTGKK (H-KKGNLPNISRIYVSIDVTGKK-NH2) [RNB-4K-GKK, modified TSHR apitope peptide]
apitope status (presentation by fixed APCs, IL-2 secretion) [1]: confirmed to be apitopes
